Measurements reported in ChEMBL document CHEMBL3046330, “Synthesis and biological activity of hydrazidehydrazones and their corresponding 3-acetyl-2,5-disubstituted-2,3-dihydro-1,3,4-oxadiazoles” (Med Chem Res, 2012).
≈ marks a conversion by molar mass, not a printed value. Calls of active or inactive are those of the source. No cut-off for these calls is given here.

Legend:
[1] = target: T1, Nitric oxide synthase, inducible (Mus musculus) (UniProt P29477); test: Inhibition of iNOS in Mus musculus (mouse) RAW264.7 cells assessed as inhibition of LPS-induced nitrite production up to 25 ug/ml incubated for 30 min prior to LPS challenge measured after 24 hr by Griess assay relative to vehicle-treated control; assay type: cell-based
T1 sequence (whole entry): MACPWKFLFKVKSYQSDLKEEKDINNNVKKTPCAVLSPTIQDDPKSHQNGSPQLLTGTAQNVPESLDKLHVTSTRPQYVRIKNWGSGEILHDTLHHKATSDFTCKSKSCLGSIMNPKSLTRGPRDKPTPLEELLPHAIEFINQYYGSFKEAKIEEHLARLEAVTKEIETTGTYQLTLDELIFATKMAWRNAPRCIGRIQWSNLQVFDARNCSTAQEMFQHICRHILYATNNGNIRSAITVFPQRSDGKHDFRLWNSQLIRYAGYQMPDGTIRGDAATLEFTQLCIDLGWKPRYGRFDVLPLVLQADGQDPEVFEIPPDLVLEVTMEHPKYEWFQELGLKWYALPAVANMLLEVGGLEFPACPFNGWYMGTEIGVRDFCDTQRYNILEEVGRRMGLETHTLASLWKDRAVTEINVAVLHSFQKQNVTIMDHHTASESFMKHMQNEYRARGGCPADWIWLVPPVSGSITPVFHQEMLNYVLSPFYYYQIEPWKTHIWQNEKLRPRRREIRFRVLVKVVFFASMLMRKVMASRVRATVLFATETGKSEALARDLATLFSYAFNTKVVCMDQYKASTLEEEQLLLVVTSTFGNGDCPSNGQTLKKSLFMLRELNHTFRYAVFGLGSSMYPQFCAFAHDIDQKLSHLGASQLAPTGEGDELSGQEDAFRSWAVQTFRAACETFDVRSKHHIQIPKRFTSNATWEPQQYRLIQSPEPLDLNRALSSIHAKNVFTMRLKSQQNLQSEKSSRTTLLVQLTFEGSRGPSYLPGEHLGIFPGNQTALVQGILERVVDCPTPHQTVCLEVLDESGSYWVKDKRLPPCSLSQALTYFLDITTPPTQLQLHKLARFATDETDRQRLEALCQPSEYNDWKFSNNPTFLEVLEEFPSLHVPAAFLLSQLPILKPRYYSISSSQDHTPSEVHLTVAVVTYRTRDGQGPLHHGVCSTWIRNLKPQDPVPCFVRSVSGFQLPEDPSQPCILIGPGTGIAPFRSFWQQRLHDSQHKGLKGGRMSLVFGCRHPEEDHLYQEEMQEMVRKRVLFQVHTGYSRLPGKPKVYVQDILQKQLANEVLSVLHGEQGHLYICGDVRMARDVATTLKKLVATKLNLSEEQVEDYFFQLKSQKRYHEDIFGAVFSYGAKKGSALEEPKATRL

RAW264.7 [2] = test: Cytotoxicity against Mus musculus (mouse) RAW264.7 cells up to 25 ug/ml; assay type: cell-based
HL-60 [3] = test: Antioxidant activity in PMA-stimulated Homo sapiens (human) HL60 cells assessed as inhibition of intracellular ROS generation up to 25 ug/ml incubated for 30 min prior to PMA stimulation measured after 30 min by DCFH-DA assay relative to vehicle-treated control; assay type: functional, cell-based
HL-60 [4] = test: Cytotoxicity against Homo sapiens (human) HL60 cells up to 25 ug/ml; assay type: cell-based
Vero = test: Cytotoxicity against Chlorocebus aethiops (African green monkey) Vero cells assessed as cell viability up to 25 ug/ml after 48 hr by neutral red assay; assay type: cell-based; details: chlorocebus sabaeus
[5] = Cytotoxicity against Sus scrofa (pig) LLC-PK11 cells assessed as cell viability up to 25 ug/ml after 48 hr by neutral red assay; assay type: cell-based; details: llc-pk11, 48 h
SK-MEL = test: Cytotoxicity against Homo sapiens (human) SK-MEL cells assessed as cell viability up to 25 ug/ml after 48 hr by neutral red assay; assay type: functional, cell-based
KB = test: Cytotoxicity against Homo sapiens (human) KB cells assessed as cell viability up to 25 ug/ml after 48 hr by neutral red assay; assay type: functional, cell-based
BT-549 = test: Cytotoxicity against Homo sapiens (human) BT549 cells assessed as cell viability up to 25 ug/ml after 48 hr by neutral red assay; assay type: functional, cell-based
Colletotrichum fragariae = test: Antifungal activity against Colletotrichum fragariae at 0.3 to 30 uM after 48 to 72 hr by broth microdilution method; assay type: functional, organism-based
Fusarium oxysporum = test: Antifungal activity against Fusarium oxysporum assessed as growth inhibition at 30 uM after 72 hr by broth microdilution method; assay type: functional; details: read-out: GI
[6] = test system: Colletotrichum gloeosporioides; test: Antifungal activity against Colletotrichum gloeosporioides assessed as growth inhibition at 30 uM after 72 hr by broth microdilution method; assay type: functional; details: read-out: GI
Candida albicans [7] = test: Antifungal activity against Candida albicans NRRL Y-12983 after 24 hr by NCCLS broth microdilution method; assay type: functional; details: NRRL Y-12983, 24 h
Nakaseomyces glabratus = test: Antifungal activity against Candida glabrata clinical isolate after 24 hr by NCCLS broth microdilution method; assay type: functional
Candida parapsilosis = test: Antifungal activity against Candida parapsilosis NRRL Y-12696 after 24 hr by NCCLS broth microdilution method; assay type: functional; details: Lodderomyces parapsilosis, NRRL Y-12696, 24 h
Pichia kudriavzevii = test: Antifungal activity against Pichia kudriavzevii NRRL Y-7179 after 24 hr by NCCLS broth microdilution method; assay type: functional; details: NRRL Y-7179, 24 h
Cyberlindnera jadinii = test: Antifungal activity against Cyberlindnera jadinii NRRL Y-900 after 24 hr by NCCLS broth microdilution method; assay type: functional; details: Williopsis jadinii, NRRL Y-900, 24 h
Botrytis cinerea = test: Antifungal activity against Botryotinia fuckeliana at 0.3 to 30 uM after 48 to 72 hr by broth microdilution method; assay type: functional, organism-based
Candida albicans [8] = test: Antifungal activity against Candida albicans ATCC 90028 after 24 hr by NCCLS broth microdilution method; assay type: functional; details: ATCC 90028, 24 h
Candida albicans [9] = test: Antifungal activity against Candida albicans clinical isolate after 24 hr by NCCLS broth microdilution method; assay type: functional
Candida tropicalis [10] = test: Antifungal activity against Candida tropicalis NRRL Y-12968 at 2000 ug/ml by agar diffusion method; assay type: functional; details: read-out: IZ
Candida albicans [11] = test: Antifungal activity against Candida albicans clinical isolate at 2000 ug/ml by agar diffusion method; assay type: functional; details: read-out: IZ
Transcription factor Sp1 = Transcription factor Sp1 (Homo sapiens, UniProt P08047); test: Inhibition of Sp1 (unknown origin) up to 25 ug/ml by luciferase reporter gene assay
SW1353 = test: Inhibition of PMA-induced NFkappaB activity in Homo sapiens (human) SW1353 cells up to 25 ug/ml incubated for 30 min followed by PMA induction for 8 hr by luciferase reporter gene assay; assay type: cell-based
SK-OV-3 = test: Cytotoxicity against Homo sapiens (human) SKOV3 cells assessed as cell viability up to 25 ug/ml after 48 hr by neutral red assay; assay type: functional, cell-based
HL-60 [12] = test: Antioxidant activity in PMA-stimulated Homo sapiens (human) HL60 cells assessed as inhibition of intracellular ROS generation incubated for 30 min prior to PMA stimulation measured after 30 min by DCFH-DA assay; assay type: functional, cell-based
Candida tropicalis [13] = test: Antifungal activity against Candida tropicalis NRRL Y-12968 after 24 hr by NCCLS broth microdilution method; assay type: functional; details: NRRL Y-12968, 24 h
[14] = Inhibition of PMA-induced NFkappaB activity in Homo sapiens (human) SW1353 cells incubated for 30 min followed by PMA induction for 8 hr by luciferase reporter gene assay; assay type: cell-based
RAW264.7 [15] = test: Cytotoxicity against Mus musculus (mouse) RAW264.7 cells; assay type: cell-based
[16] = target: T2, Nitric oxide synthase, inducible (Mus musculus, UniProt P29477); test: Inhibition of iNOS in Mus musculus (mouse) RAW264.7 cells assessed as inhibition of LPS-induced nitrite production incubated for 30 min prior to LPS challenge measured after 24 hr by Griess assay; assay type: cell-based
T2 sequence (P29477 whole entry): T1 sequence (whole entry)

HL-60 [17] = test: Cytotoxicity against Homo sapiens (human) HL60 cells; assay type: cell-based

Chain of Transcription factor Sp1 (P08047 whole entry): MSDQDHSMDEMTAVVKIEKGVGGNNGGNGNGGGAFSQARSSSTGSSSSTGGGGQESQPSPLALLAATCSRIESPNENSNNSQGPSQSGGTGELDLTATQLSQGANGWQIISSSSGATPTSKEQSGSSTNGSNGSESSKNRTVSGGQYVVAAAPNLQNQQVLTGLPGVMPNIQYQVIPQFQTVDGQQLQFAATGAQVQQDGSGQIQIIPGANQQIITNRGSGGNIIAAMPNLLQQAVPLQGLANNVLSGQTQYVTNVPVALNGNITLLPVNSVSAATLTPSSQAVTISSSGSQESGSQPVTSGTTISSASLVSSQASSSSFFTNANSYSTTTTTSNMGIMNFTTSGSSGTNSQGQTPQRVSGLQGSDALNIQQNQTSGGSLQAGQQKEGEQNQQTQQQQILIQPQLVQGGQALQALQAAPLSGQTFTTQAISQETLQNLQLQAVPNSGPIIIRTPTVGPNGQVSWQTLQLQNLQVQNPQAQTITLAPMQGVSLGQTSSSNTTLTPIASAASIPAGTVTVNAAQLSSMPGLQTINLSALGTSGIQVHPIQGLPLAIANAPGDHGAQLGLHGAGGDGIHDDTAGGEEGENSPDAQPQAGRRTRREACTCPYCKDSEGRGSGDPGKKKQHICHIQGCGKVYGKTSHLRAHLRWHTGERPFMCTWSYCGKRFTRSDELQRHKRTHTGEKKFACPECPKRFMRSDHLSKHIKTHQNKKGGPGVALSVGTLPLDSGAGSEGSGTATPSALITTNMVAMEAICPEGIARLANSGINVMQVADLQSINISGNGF

| SMILES | Activity (RAW264.7 [2]) | Activity (HL-60 [4]) | Activity (Vero) | Activity [5] | Activity (SK-MEL) | Activity (KB) | Activity (BT-549) | MIC (Candida albicans [7]) | MIC (Candida parapsilosis) | MIC (Pichia kudriavzevii) | MIC (Cyberlindnera jadinii) | MIC (Candida albicans [8]) | MIC (Candida albicans [9]) | zone of inhibition at 2000 µg/mL (Candida tropicalis [10]) | zone of inhibition at 2000 µg/mL (Candida albicans [11]) | inhibition (INH) (Transcription factor Sp1) | Activity (SK-OV-3) | MIC (Candida tropicalis [13]) | IC50 [14] | IC50 [16] | other results |
| --- | --- | --- | --- | --- | --- | --- | --- | --- | --- | --- | --- | --- | --- | --- | --- | --- | --- | --- | --- | --- | --- |
| O=C(N/N=C/c1ccc(Br)cc1)c1ccc(F)cc1 | Non-toxic | Non-toxic | Not Active | Not Active | inactive | inactive | inactive | 500 µg/mL (≈ 1560 µM) | 1000 µg/mL (≈ 3110 µM) | 500 µg/mL (≈ 1560 µM) | 1000 µg/mL (≈ 3110 µM) | 500 µg/mL (≈ 1560 µM) | 500 µg/mL (≈ 1560 µM) | 9 mm | 9 mm | Not Active | inactive |  |  |  | inhibition [1]: inactive; inhibition (HL-60 [3]): inactive; Activity (Colletotrichum fragariae): inactive; inhibition of growth at 30 µM (Fusarium oxysporum): 35%; inhibition of growth at 30 µM [6]: 22%; MIC (Nakaseomyces glabratus): 250 µg/mL (≈ 778 µM); Activity (Botrytis cinerea): inactive; inhibition (SW1353): inactive |
| O=C(N/N=C/c1ccc(F)cc1)c1ccc(F)cc1 | Non-toxic | Non-toxic | Not Active | Not Active | inactive | inactive | inactive | 500 µg/mL (≈ 1920 µM) | 500 µg/mL (≈ 1920 µM) | 500 µg/mL (≈ 1920 µM) | 500 µg/mL (≈ 1920 µM) | 500 µg/mL (≈ 1920 µM) | 250 µg/mL (≈ 961 µM) | 9 mm | 9 mm | Not Active | inactive | 500 µg/mL (≈ 1920 µM) | 15 µg/mL (≈ 57.6 µM) |  | inhibition [1]: inactive; IC50 (HL-60 [12]): 20 µg/mL (≈ 76.9 µM) |
| C=C1C(=O)O[C@@H]2C3O[C@]3(C)CC/C=C(\C)CC[C@@H]12 (stereo partly drawn) |  |  |  |  |  |  |  |  |  |  |  |  |  |  |  |  |  |  | 0.68 µg/mL (≈ 2.74 µM) | 1610 nM | IC50 (RAW264.7 [15]): 13 µg/mL (≈ 52.4 µM) |
| COc1ccc(C2OC(c3ccc(F)cc3)=NN2C(C)=O)cc1O (stereo not drawn) | Non-toxic |  | Not Active | Not Active | inactive | inactive | inactive | 500 µg/mL (≈ 1510 µM) | 500 µg/mL (≈ 1510 µM) | 500 µg/mL (≈ 1510 µM) | 250 µg/mL (≈ 757 µM) | 500 µg/mL (≈ 1510 µM) | 250 µg/mL (≈ 757 µM) | 9 mm | 9 mm | Not Active | inactive | 500 µg/mL (≈ 1510 µM) | 0.75 µg/mL (≈ 2.27 µM) | 12100 nM | IC50 (HL-60 [12]): 0.9 µg/mL (≈ 2.72 µM); IC50 (HL-60 [17]): 20 µg/mL (≈ 60.5 µM); Activity (Colletotrichum fragariae): inactive; MIC (Nakaseomyces glabratus): 250 µg/mL (≈ 757 µM); Activity (Botrytis cinerea): inactive |
| O=C(N/N=C/c1ccc(O)cc1)c1ccc(F)cc1 |  | Non-toxic | Not Active | Not Active | inactive | inactive | inactive | 500 µg/mL (≈ 1940 µM) | 500 µg/mL (≈ 1940 µM) | 500 µg/mL (≈ 1940 µM) | 500 µg/mL (≈ 1940 µM) | 500 µg/mL (≈ 1940 µM) |  | 9 mm | 9 mm | Not Active | inactive | 500 µg/mL (≈ 1940 µM) |  | > 96800 nM | inhibition [1]: inactive; IC50 (RAW264.7 [15]): > 25 µg/mL; inhibition (HL-60 [3]): inactive; inhibition (SW1353): inactive |
| CC(=O)N1N=C(c2ccc(F)cc2)OC1c1ccc(O)cc1 (stereo not drawn) | Non-toxic | Non-toxic | Not Active | Not Active | inactive | inactive | inactive | 500 µg/mL (≈ 1670 µM) | 250 µg/mL (≈ 833 µM) | 250 µg/mL (≈ 833 µM) | 125 µg/mL (≈ 416 µM) | 500 µg/mL (≈ 1670 µM) | 250 µg/mL (≈ 833 µM) | 9 mm | 9 mm | Not Active | inactive | 250 µg/mL (≈ 833 µM) | 5.5 µg/mL (≈ 18.3 µM) | 999 nM | inhibition (HL-60 [3]): inactive; Activity (Colletotrichum fragariae): inactive; MIC (Nakaseomyces glabratus): 500 µg/mL (≈ 1670 µM); Activity (Botrytis cinerea): inactive |
